Molecules are shown by their SMILES. Where two headings read alike, the source gives them in different places.

For series [1] the following is noted: from CCC[CH2][Sn]([CH2]CCC)([CH2]CCC)[c]1cn(CCCOP(=O)(Cc2ccc(Nc3ncc(C(F)(F)F)c(Nc4ccc(Br)nc4C(=O)NC)n3)c(OC)c2)OCC)nn1; cc_pd bond; 22-membered ring; 2 steps.
For a further series, the target named is T1, FAK (Homo sapiens, UniProt Q05397).
T1 construct: endogenous in cells; host or cells: U87MG glioblastoma cells (ATCC HTB-14)
The experiment in a line: Cell-based capture ELISA for inhibition of FAK autophosphorylation [pY397] in U87MG cells. The essentials: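 U87MG cells on fibronectin-coated plates treated with compounds for 2 h at 37° C in complete growth medium (0.6% DMSO final). Lysates captured on anti-FAK ELISA plates; pY397 detected with phospho-specific antibody, HRP and chromogen at 450 nm. Variant run with 50% (v/v) mouse or human plasma.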
For orientation: An ELISA detects its analyte on a solid surface through an enzyme-linked reagent.

The target of series [2] is T2, GST-tagged full-length FAK enzyme (PTK2) (Homo sapiens, UniProt Q05397).
T2 construct: GST-tagged full-length FAK enzyme (PTK2, Invitrogen PV4085); GST; purchased Invitrogen PV4085
The experiment in a line: Biochemical Omnia Assay (FAK). A digest of the protocol: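 GST-tagged full-length human FAK, added at 50 nM to compound and a peptide (40 μM)/ATP (200 μM) solution, stated before mixing. Omnia peptide phosphorylation followed continuously by fluorescence increase. Duplicate points; IC50 by nonlinear fitting of linear progress-curve slopes.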

[3] abbreviates: 50% (v/v) human plasma, mean IC50, read-out: FAK Activity Mechanistic (U87MG) HP.
[4] abbreviates: 50% (v/v) mouse plasma, mean IC50, read-out: FAK Activity Mechanistic (U87MG) MP.
Setting [5] is: no plasma present, mean IC50, read-out: FAK Activity Mechanistic (U87MG) NP.
The mark [6] stands for this setting: mean IC50, [ATP] = 50uM, read-out: FAK Activity Biochemical OMNIA, [ATP] = 50uM.

T2 sequence (Q05397 whole entry): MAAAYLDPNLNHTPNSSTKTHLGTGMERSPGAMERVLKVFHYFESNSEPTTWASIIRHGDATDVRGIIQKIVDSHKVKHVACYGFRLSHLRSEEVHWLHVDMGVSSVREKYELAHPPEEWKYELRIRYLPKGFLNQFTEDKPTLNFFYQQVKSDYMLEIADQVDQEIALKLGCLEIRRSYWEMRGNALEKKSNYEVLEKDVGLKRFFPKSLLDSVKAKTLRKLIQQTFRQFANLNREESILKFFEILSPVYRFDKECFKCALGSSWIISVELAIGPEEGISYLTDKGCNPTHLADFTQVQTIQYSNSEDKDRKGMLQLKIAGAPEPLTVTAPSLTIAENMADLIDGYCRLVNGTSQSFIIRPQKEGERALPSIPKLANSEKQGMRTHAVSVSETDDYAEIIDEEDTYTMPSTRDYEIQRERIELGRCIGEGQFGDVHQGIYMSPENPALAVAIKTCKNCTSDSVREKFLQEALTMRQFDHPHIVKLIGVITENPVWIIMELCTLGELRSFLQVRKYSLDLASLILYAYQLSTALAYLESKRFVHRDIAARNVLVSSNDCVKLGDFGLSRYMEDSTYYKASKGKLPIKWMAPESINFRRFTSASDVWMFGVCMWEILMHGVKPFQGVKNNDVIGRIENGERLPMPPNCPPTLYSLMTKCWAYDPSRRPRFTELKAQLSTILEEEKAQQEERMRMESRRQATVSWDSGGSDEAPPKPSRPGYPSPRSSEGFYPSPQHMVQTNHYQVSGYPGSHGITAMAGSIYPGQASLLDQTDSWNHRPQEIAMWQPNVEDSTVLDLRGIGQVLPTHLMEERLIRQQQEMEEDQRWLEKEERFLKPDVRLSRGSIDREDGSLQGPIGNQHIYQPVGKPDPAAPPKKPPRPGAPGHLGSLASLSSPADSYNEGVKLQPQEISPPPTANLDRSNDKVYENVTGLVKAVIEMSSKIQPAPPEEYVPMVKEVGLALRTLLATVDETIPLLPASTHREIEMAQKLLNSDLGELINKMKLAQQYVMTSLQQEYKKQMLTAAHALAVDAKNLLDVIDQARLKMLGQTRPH
T1 sequence (Q05397 whole entry): as above

Consider `CCO[P@@]1(=O)Cc2ccc(c(OC)c2)Nc2ncc(C(F)(F)F)c(n2)Nc2ccc(c3c2C(=O)N(C)C3)-c2cnn(c2)CCCO1`, for which, where the note is “from CCOP(=O)(O)Cc1ccc(Nc2ncc(C(F)(F)F)c(Nc3ccc(-c4cnn(CCCO)c4)c4c3C(=O)N(C)C4)n2)c(OC)c1, ester bond, PyBOP/DIPEA, 1,2-dichloroethane, 1.17 mM, 72.0 h”, the ring closure, yield of all isomers was 14.1%.
On to `CCO[P@@]1(=O)Cc2ccc(c(OC)c2)Nc2ncc(C(F)(F)F)c(n2)Nc2ccc(nc2C(=O)NC)-c2cn(nn2)CCCO1`, for which the ring closure, isolated yield in series [1] turned out to be 24%.
Take `CCCP1(=O)Cc2ccc(c(OC)c2)Nc2ncc(C(F)(F)F)c(n2)Nc2ccc(nc2C(=O)NC)-c2cn(nn2)CCCO1` (racemic): the ring closure, yield of all isomers (from CCC[CH2][Sn]([CH2]CCC)([CH2]CCC)[c]1cn(CCCOP(=O)(CCC)Cc2ccc(Nc3ncc(C(F)(F)F)c(Nc4ccc(Br)nc4C(=O)NC)n3)c(OC)c2)nn1, cc_pd bond) worked out at 19%.
On to `CCCP1(=O)Cc2ccc(c(OC)c2)Nc2ncc(C(F)(F)F)c(n2)Nc2ccc(nc2C(=O)NC)-c2cnn(c2)CCCO1` (racemic), for which, under “from CCCP(=O)(O)Cc1ccc(Nc2ncc(C(F)(F)F)c(Nc3ccc(-c4cnn(CCCO)c4)nc3C(=O)NC)n2)c(OC)c1, ester bond, DCC, pyridine, 15.0 mM, 115.0 °C, 5.5 h, 2 steps”, the ring closure, yield of all isomers was 55%.
`CCOP1(=O)Cc2ccc(c(OC)c2)Nc2ncc(C(F)(F)F)c(n2)Nc2ccc(cc2C(=O)N(CC)CC)-c2cnn(c2)CCCO1` (racemic): the ring closure, yield of all isomers (from CCOP(=O)(O)Cc1ccc(Nc2ncc(C(F)(F)F)c(Nc3ccc(-c4cnn(CCCO)c4)cc3C(=O)N(CC)CC)n2)c(OC)c1, ester bond, PyBOP/DIPEA, 1,2-dichloroethane, 1.03 mM, 25.0 °C, 24.0 h) came out at 43%.
The compound `CCOP1(=O)Cc2ccc(c(OC)c2)Nc2ncc(C(F)(F)F)c(n2)Nc2ccc(nc2C(=O)NC)-c2cnn(c2)CC2(COC2)CO1` (racemic) returned a ring closure, yield of all isomers (from CCOP(=O)(Cc1ccc(Nc2ncc(C(F)(F)F)c(Nc3ccc(Br)nc3C(=O)NC)n2)c(OC)c1)OCC1(Cn2cc(B3OC(C)(C)C(C)(C)O3)cn2)COC1, cc_pd bond, Pd(dppf)Cl2·CH2Cl2, K2CO3, 1,4-dioxane, 13.5 mM, 100.0 °C, 0.5 h) of 43%.
`CCOP1(=O)Cc2ccc(c(OC)c2)Nc2ncc(C(F)(F)F)c(n2)Nc2ccc(nc2C(=O)NC)-c2cc(C(=O)OC)n(c2)CCCO1` (racemic) [Example 38]: the IC50 was less than 400 nM at FAK (setting [3]), 400 to 4000 nM on FAK (setting [4]), less than 400 nM on FAK (setting [5]) and less than 400 nM in series [2]. Further, the ring closure, yield of all isomers (from CCOP(=O)(O)Cc1ccc(Nc2ncc(C(F)(F)F)c(Nc3ccc(-c4cc(C(=O)OC)n(CCCO)c4)nc3C(=O)NC)n2)c(OC)c1, ester bond, PyBOP/DIPEA, 1,2-dichloroethane, 1.53 mM, 25.0 °C, 24.0 h) came to 58%.
In the case of `CCOP1(=O)Cc2ccc(c(OC)c2)Nc2ncc(C(F)(F)F)c(n2)Nc2ccc(nc2C(=O)NC)-c2cn(nc2OC)CCCO1` (single isomer, unassigned) [Example 48A], the IC50 on FAK (setting [3]) was more than 4000 nM; on FAK (setting [4]), 400 to 4000 nM; at FAK (setting [5]), less than 400 nM; in series [2] it was less than 400 nM.
As to `CCOP1(=O)Cc2ccc(c(OC)c2)Nc2ncc(C(F)(F)F)c(n2)Nc2ccc(nc2C(=O)NC)-c2cn(nc2Cl)CCCO1` (single isomer, unassigned) [Example 49A], the IC50 at FAK (setting [3]) is more than 4000 nM; at FAK (setting [4]) it was 400 to 4000 nM; on FAK (setting [5]), less than 400 nM; in series [2] (setting [6]), less than 400 nM.
Turning to `CCOP1(=O)Cc2ccc(c(OC)c2)Nc2ncc(C(F)(F)F)c(n2)Nc2ccc(nc2C(=O)NC)-c2cnn(c2)C(C)(C)CCO1` (single isomer, unassigned) [Example 50A], the values for the IC50 (on FAK (setting [3]); at FAK (setting [5]); in series [2] (setting [6])) were 400 to 4000 nM, less than 400 nM and less than 400 nM, respectively.
As for `CCOP1(=O)Cc2ccc(c(OC)c2Cl)Nc2ncc(C(F)(F)F)c(n2)Nc2ccc(nc2C(=O)NC)-c2cnn(c2)CCCO1` (single isomer, unassigned) [Example 54A], the figures for the IC50 (on FAK (setting [3]); at FAK (setting [5]); in series [2]) were more than 4000 nM, 400 to 4000 nM and less than 400 nM, respectively.
For `CCOP1(=O)Cc2cc(OC)c(cc2Cl)Nc2ncc(C(F)(F)F)c(n2)Nc2ccc(nc2C(=O)NC)-c2cnn(c2)CCCO1` (single isomer, unassigned) [Example 56A], the IC50 is more than 4000 nM on FAK (setting [3]), 400 to 4000 nM at FAK (setting [4]), less than 400 nM at FAK (setting [5]) and less than 400 nM in series [2].
For the compound `CCOP1(=O)Cc2cc(OC)c(cc2Cl)Nc2ncc(C(F)(F)F)c(n2)Nc2ccc(nc2C(=O)NC)-c2cnn(c2)CC2(COC2)CO1` (single isomer, unassigned) [Example 57A], the IC50 at FAK (setting [3]) was more than 4000 nM; on FAK (setting [4]), 400 to 4000 nM; at FAK (setting [5]), less than 400 nM; in series [2], less than 400 nM.
Take `CCOP1(=O)Cc2ccc(c(Cl)c2)Nc2ncc(C(F)(F)F)c(n2)Nc2ccc(nc2C(=O)NC)-c2cnn(c2)CC2(COC2)CO1` (single isomer, unassigned) [Example 58A]: the IC50 is 400 to 4000 nM at FAK (setting [3]), less than 400 nM at FAK (setting [5]) and less than 400 nM in series [2].
On to `CCOP1(=O)Cc2ccc(c(OC)c2)Nc2ncc(C(F)(F)F)c(n2)Nc2ccc(nc2C(=O)NC)-c2cnn(c2)CC(F)(F)CO1` (single isomer, unassigned) [Example 59A], for which the IC50 on FAK (setting [3]) is 400 to 4000 nM; on FAK (setting [5]), less than 400 nM; in series [2] (read-out: FAK Activity Biochemical OMNIA, [ATP] = 50uM, mean IC50, [ATP] = 50uM), less than 400 nM.
For `CCOP1(=O)Cc2ccc(c(OC)c2)Nc2ncc(C(F)(F)F)c(n2)Nc2ccc(nc2C(=O)NC)-c2cnn(c2)CC(F)(F)CO1` (single isomer, unassigned) [Example 59B], the IC50 on FAK (setting [3]) is 400 to 4000 nM; on FAK (setting [5]), 400 to 4000 nM; in series [2], less than 400 nM.
Take `CCOP1(=O)Cc2ccc(c(OC)c2)Nc2ncc(C(F)(F)F)c(n2)Nc2ccc(nc2C(=O)NC)-c2cn(nc2C)CC2(COC2)CO1` (single isomer, unassigned) [Example 60A]: the IC50 (on FAK (setting [3]); on FAK (setting [5]); in series [2]) was less than 400 nM each time.
For the compound `CNC(=O)c1nc2ccc1Nc1nc(ncc1C(F)(F)F)Nc1ccc(cc1OC)CP(C)(=O)OCCCn1cc-2cn1` (single isomer, unassigned) [Example 61A], the IC50 (on FAK (setting [3]); at FAK (setting [4]); on FAK (setting [5]); in series [2] (setting [6])) was less than 400 nM in each case.
Take `CCOP1(=O)Cc2ccc(c(OC)c2)Nc2ncc(C(F)(F)F)c(n2)Nc2ccc(nc2C(=O)NC)-c2cn(nn2)CCCO1` (single isomer, unassigned) [Example 64A]: the IC50 (on FAK (setting [3]); on FAK (setting [5]); in series [2] (setting [6])) was less than 400 nM each time. The ring closure, yield of all isomers (from CCC[CH2][Sn]([CH2]CCC)([CH2]CCC)[c]1cn(CCCOP(=O)(Cc2ccc(Nc3ncc(C(F)(F)F)c(Nc4ccc(Br)nc4C(=O)NC)n3)c(OC)c2)OCC)nn1, cc_pd bond, 2 steps) worked out at 24%.
Take `CCP1(=O)Cc2ccc(c(OC)c2)Nc2ncc(C(F)(F)F)c(n2)Nc2ccc(nc2C(=O)NC)-c2cnn(c2)CCCO1` (single isomer, unassigned) [Example 67A]: the IC50 on FAK (setting [3]) is 400 to 4000 nM; on FAK (setting [4]) it was 400 to 4000 nM; on FAK (setting [5]), less than 400 nM; in series [2] (setting [6]) it was less than 400 nM.
In the case of `CNC(=O)c1nc2ccc1Nc1nc(ncc1C(F)(F)F)Nc1ccc(cc1OC)CP(=O)(C(C)C)OCCCn1cc-2cn1` (single isomer, unassigned) [Example 68A], the IC50 is 400 to 4000 nM on FAK (setting [3]), 400 to 4000 nM at FAK (setting [4]), less than 400 nM on FAK (setting [5]) and less than 400 nM in series [2] (setting [6]).
In the case of `CNC(=O)c1nc2ccc1Nc1nc(ncc1C(F)(F)F)Nc1ccc(cc1OC)CP(=O)(C(C)C)OCCCn1cc-2cn1` (single isomer, unassigned) [Example 68B], the IC50 (on FAK (setting [3]); at FAK (setting [4]); on FAK (setting [5]); in series [2] (setting [6])) was less than 400 nM in each case.
With `CCOP1(=O)Cc2ccc(cc2)Nc2ncc(C(F)(F)F)c(n2)Nc2ccc(nc2C(=O)NC)-c2cnn(c2)CCCCO1` (stereo not drawn) [Example 16, 11-ethoxy-N-methyl-21-(trifluoromethyl)-10-oxa-4,5,17,19,23,26,29-heptaaza-11-phosphapentacyclo[22.2.2.2^13,16.1^2,5.1^18,22]dotriaconta-1(26),2(32),3,13,15,18(29),19,21,24,27,30-undecaene-25-carboxamide 11-oxide], the IC50 (at FAK (setting [3]); at FAK (setting [5]); in series [2]) was less than 400 nM in each case.
In the case of `CNC(=O)c1nc2ccc1Nc1nc(ncc1C(F)(F)F)Nc1ccc(cc1OC)CP(=O)(O)OCCCn1cc-2cn1` [Example 65, 10-hydroxy-14-methoxy-N-methyl-20-(trifluoromethyl)-9-oxa-4,5,16,18,22,25,28-heptaaza-10-phosphapentacyclo[21.2.2.2^12,15.1^2,5.1^17,21]hentriaconta-1(25),2(31),3,12,14,17(28),18,20,23,26,29-undecaene-24-carboxamide 10-oxide], the IC50 was more than 4000 nM on FAK (setting [3]), more than 4000 nM on FAK (setting [4]), more than 4000 nM at FAK (setting [5]) and less than 400 nM in series [2] (setting [6]).

(Values after US9133224B2, “Macrocyclic kinase inhibitors” (OSI Pharmaceuticals, LLC, priority 2010, dated 2015).)
